# In PubChem BioAssay AID790 (SRMLSC, 2007):
# Calls of active or inactive are those of the source. The rule behind the calls is not given here.
# Key:
# [1] = vps1Δ single mutant yeast growth suppression – S. cerevisiae, background strain comparison, dose response (AID 790); conditions: S. cerevisiae vps1Δ mutant growth inhibition; measured here: background strain growth inhibition
# [2] = test system: S. cerevisiae vps1Δ mutant growth inhibition; assay: as above
Structure (SMILES),IC50 [1],IC50 [2]
O=C(OCn1nnc2ccccc2c1=O)c1cn(-c2ccccc2)nc1-c1cccnc1,> 10 µM,> 10 µM (inactive)
Cc1ccc2nc(C)cc(OCC(=O)O)c2c1,> 10 µM,> 10 µM (inactive)
CC(=O)c1cnc2nc(C)nn2c1C,> 10 µM,> 10 µM (inactive)
CCOc1ccc(-c2[nH]ncc2Oc2ccccc2OCC)c(O)c1,16 µM,23.7 µM (inactive)
O=C(OCn1ncc(Cl)c(Cl)c1=O)c1ccccc1Cl,16.6 µM,5.41 µM
Cc1cc(O)c(/C=N/Nc2ccc(Cl)cc2)c(=O)o1,4.69 µM,5.43 µM (inactive)
Cc1ccc2cc(CN(CCO)Cc3nnnn3Cc3ccc(F)cc3)c(=O)[nH]c2c1,> 10 µM,> 10 µM (inactive)
Cc1cc(NCCCN2CCOCC2)n2ncc(-c3ccc(Cl)cc3)c2n1,> 10 µM,> 10 µM (inactive)
O=C1CC(N2CCN(c3ccc(Cl)c(Cl)c3)CC2)C(=O)N1 (stereo not drawn),> 10 µM,15.3 µM
c1ccc(Nc2cc(-c3ccccc3)nc3ncnn23)cc1,> 10 µM,5.22 µM
O=C(CCl)c1ccc(Cc2ncc(C(F)(F)F)cc2Cl)s1,8.68 µM,9.7 µM (inactive)
Cc1ccc(C)c(NS(=O)(=O)c2cc(C(=O)N3CCc4ccccc4C3)ccc2Cl)c1,6.88 µM,> 10 µM (inactive)
COc1ccc(C2C3=C(CCCC3=O)Nc3nc(-c4cc(OC)c(OC)c(OC)c4)nn32)cc1OC (stereo not drawn),> 10 µM,> 10 µM (inactive)
CCN(CC)c1ccc(CN2CC=C(c3ccc(F)cc3)CC2)cc1,25.8 µM,> 10 µM (inactive)
Cc1cccc(-c2nnc(-c3cccc(NC(=O)Cc4cccs4)c3)o2)c1,15.2 µM,> 10 µM (inactive)
Cc1ccc(NS(=O)(=O)c2cc(C(=O)N3CCOCC3)ccc2C)cc1,> 10 µM,> 10 µM (inactive)
Clc1ccc(Cn2nnc(-c3ccc(CN4CCOCC4)cc3)n2)cc1,> 10 µM,> 10 µM (inactive)
CCOC(=O)Cn1cc(C=O)c2ccccc21,> 10 µM,> 10 µM (inactive)
CCSc1nnc(NC(=O)NCC(F)(F)F)s1,> 10 µM,> 10 µM (inactive)
O=C(Cn1nnc(-c2ccc(S(=O)(=O)N3CCCC3)cc2)n1)NCC1CCCO1 (stereo not drawn),> 10 µM,> 10 µM (inactive)
CCOC(=O)C1=C(CSc2nc(-c3ccccc3)ccc2C#N)OC(N)=C(C#N)C1c1cccnc1 (stereo not drawn),> 10 µM,> 10 µM (inactive)
CCCC(=O)N1CCN(c2ccc(NC(=O)c3cc4ccccc4o3)cc2Cl)CC1,19.2 µM,> 10 µM (inactive)

Structure (SMILES),IC50 [1],IC50 [2]
Cc1ccc(CN2CCN(/N=C/c3cc(Br)ccc3O)CC2)cc1,> 10 µM,> 10 µM (inactive)
Cc1ccnc(N2C(=O)c3cccc4c([N+](=O)[O-])ccc(c34)C2=O)c1,4.22 µM,2.86 µM
O=C(NCCc1ccccc1)C1CCN(S(=O)(=O)N2CCCC2)CC1,> 10 µM,> 10 µM (inactive)
c1ccc(-c2ccc(-c3cnc4n3CCCCC4)cc2)cc1,> 10 µM,> 10 µM (inactive)
Cn1c2ccc(Cl)cc2c2nc3ccccc3nc21,> 10 µM,> 10 µM (inactive)
Cc1ccc(Cl)c(OCCCCN(C)Cc2ccccc2)c1,> 10 µM,> 10 µM (inactive)
O=C(Nc1nnc(-c2ccc3c(c2)CCCC3)o1)c1ccccc1Cl,10.7 µM,1.58 µM
N=c1c2c(-c3ccccc3)c(-c3ccccc3)n(Cc3ccco3)c2ncn1Cc1ccco1,21.5 µM,> 10 µM (inactive)
O=C(Nc1cc(C(F)(F)F)ccc1-n1cncn1)c1ccc(-c2ccccc2)cc1,> 10 µM,> 10 µM (inactive)
CCN(CC)CCCN(Cc1cc2cc3c(cc2[nH]c1=O)OCCO3)C(=O)Nc1ccc(F)cc1,> 10 µM,> 10 µM (inactive)
CCN(CC)c1nc2cc(OC)ccc2cc1C#N,> 10 µM,> 10 µM (inactive)
Cc1cc(C)n2nc(C(=O)NCc3ccccc3)cc2n1,> 10 µM,> 10 µM (inactive)
O=c1c2cccc3c2c(nn1CN1CCOCC1)-c1ccccc1-3,> 10 µM,> 10 µM (inactive)
OC(Cn1ccnc1)c1ccc(Cl)cc1Cl (stereo not drawn),> 10 µM,> 10 µM (inactive)
O=S(=O)(NCC(c1cccnc1)N1CCN(c2ccccc2)CC1)c1cccs1 (stereo not drawn),> 10 µM,20.5 µM
Nc1cc(N)c(OCC(F)(F)F)cc1OCC(F)(F)F,> 10 µM,> 10 µM (inactive)
CC1CC(C)CN(CCOc2ccc(Cl)cc2Cl)C1 (stereo not drawn),> 10 µM,> 10 µM (inactive)
CCCCOc1ccc(-c2ncc(C(=O)O)c(C)n2)cc1,> 10 µM,> 10 µM (inactive)
O=C(c1ccco1)N1CCN(c2ncnc3c2[nH]c2ccccc23)CC1,> 10 µM,> 10 µM (inactive)
Cc1cccc(-c2c3c(=O)n(C)c(=O)n(C)c3cn2C2CCCCC2)c1,> 10 µM,> 10 µM (inactive)
CCn1c(-c2c[nH]c3ccccc23)n[nH]c1=S,> 10 µM,> 10 µM (inactive)
CCc1ccc(C(=O)/C=C/c2ccc([N+](=O)[O-])o2)cc1,20.7 µM,2.13 µM

Structure (SMILES),IC50 [1],IC50 [2]
c1coc(CNc2nc(N3CCCCC3)nc3ccccc23)c1,> 10 µM,> 10 µM (inactive)
CC(C)c1ccc(C2C3CSCC=C3C(C#N)=C(N)C2(C#N)C#N)cc1 (stereo not drawn),0.843 µM,1.77 µM (inactive)
CC(C)COC(=O)c1ccc2c(c1O)C(=O)c1ccccc1C2=O,> 10 µM,22.9 µM
Clc1cc(Br)ccc1OCCOCCN1CCOCC1,> 10 µM,> 10 µM (inactive)
NC(=O)c1c(NC(=O)CN2C(=O)CCC2=O)sc2c1CCCCC2,> 10 µM,> 10 µM (inactive)
COc1ccc(NC(=O)N(C2CCCCC2)C(C)c2cccnc2)c(OC)c1 (stereo not drawn),16.7 µM,16.5 µM
Cc1cc(OCC(F)(F)C(F)(F)C(F)(F)C(F)(F)C(F)(F)C(F)F)nc(N)n1,> 10 µM,> 10 µM (inactive)
N#CC1=C(N)NC(SCc2ccc(F)cc2)=C(C#N)C12CCCCC2,16.3 µM,2.12 µM
CN1C(=O)/C(=C/c2cccn2-c2ccc3ccccc3c2)C(=O)NC1=S,6.58 µM,14.2 µM (inactive)
C/C(=N\N=C(/N)SC1CC(=O)N(c2ccc(Cl)c(Cl)c2)C1=O)c1cccs1 (stereo not drawn),5.98 µM,4.46 µM
N#Cc1cn(-c2ccccc2)nc1-c1cc2ccccc2oc1=O,> 10 µM,> 10 µM (inactive)
COC(=O)C1=CN(CCCN2CCCC2=O)C=C(C(=O)OC)C1c1ccccc1C(F)(F)F,> 10 µM,> 10 µM (inactive)
C=C(C)COc1ccc(-c2ncncc2Oc2ccc(OC)cc2)c(O)c1,> 10 µM,> 10 µM (inactive)
Cc1nc(NC(=O)c2ccccc2)sc1-c1csc(NCc2ccccc2)n1,> 10 µM,1.96 µM
CCCc1cc(NCCCCO)n2c(nc3ccccc32)c1C#N,> 10 µM,> 10 µM (inactive)
O=C1CN(C(=O)CSc2nnc(-c3ccccc3)n2Cc2ccc3c(c2)OCO3)c2ccccc2N1,> 10 µM,> 10 µM (inactive)
CC(NC(=O)CSc1nc2c(cc1C#N)CN(C)CC2)c1ccccc1 (stereo not drawn),> 10 µM,> 10 µM (inactive)
C=CCc1ccc(OCC(O)CN2CCC(Cc3ccccc3)CC2)c(OC)c1 (stereo not drawn),19.1 µM,19.4 µM (inactive)
Cc1cc(C)nc(N/N=C/C(Cl)=C/c2ccccc2)n1,> 10 µM,> 10 µM (inactive)
Cc1ccc(C(C)C)c(OCCCN2CC(C)OC(C)C2)c1 (stereo not drawn),> 10 µM,> 10 µM (inactive)
